Active and inactive are the calls of the source. No cut-off for these calls is given here.
Columns and labels:
[1] = tested on: HeLa; assay: Antagonist activity at P2Y receptor in human HeLa cells assessed as inhibition of ATP-induced Ca2+ release at 100 uM by using fura-2AM-based fluorescence assay; assay type: functional, cell-based
[2] = target: T1, Histamine H1 receptor (Homo sapiens, UniProt P35367); assay: Antagonist activity at histamine H1 receptor in human HeLa cells assessed as inhibition of histamine-induced Ca2+ release at 100 uM by using fura-2AM-based fluorescence assay; assay type: functional, cell-based
[3] = target: Histamine H1 receptor (Rattus norvegicus, UniProt P31390); assay type: cell membranes, Sprague-Dawley, Brain, Membrane
[4] = target: T1, Histamine H1 receptor; assay: Antagonist activity at H1 receptor in human HeLa cells assessed as inhibition of histamine-induced Ca2+ release by using fura-2AM-based fluorescence assay; assay type: functional, cell-based

T1 sequence (P35367 whole entry): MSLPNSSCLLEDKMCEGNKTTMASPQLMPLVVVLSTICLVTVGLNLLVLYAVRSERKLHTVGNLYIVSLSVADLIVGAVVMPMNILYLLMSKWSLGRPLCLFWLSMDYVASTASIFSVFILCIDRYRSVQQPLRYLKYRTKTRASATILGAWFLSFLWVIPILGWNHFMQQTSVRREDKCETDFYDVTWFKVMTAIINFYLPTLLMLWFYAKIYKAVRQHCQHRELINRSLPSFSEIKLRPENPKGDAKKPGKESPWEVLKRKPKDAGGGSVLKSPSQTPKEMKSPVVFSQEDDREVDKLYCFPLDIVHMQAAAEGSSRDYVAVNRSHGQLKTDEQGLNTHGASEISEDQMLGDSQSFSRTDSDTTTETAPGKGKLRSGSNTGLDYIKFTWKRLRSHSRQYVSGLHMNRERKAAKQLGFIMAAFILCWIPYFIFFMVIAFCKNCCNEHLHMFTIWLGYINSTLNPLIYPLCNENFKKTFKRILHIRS
Chain of Histamine H1 receptor (Rattus norvegicus, UniProt P31390) (P31390 whole entry): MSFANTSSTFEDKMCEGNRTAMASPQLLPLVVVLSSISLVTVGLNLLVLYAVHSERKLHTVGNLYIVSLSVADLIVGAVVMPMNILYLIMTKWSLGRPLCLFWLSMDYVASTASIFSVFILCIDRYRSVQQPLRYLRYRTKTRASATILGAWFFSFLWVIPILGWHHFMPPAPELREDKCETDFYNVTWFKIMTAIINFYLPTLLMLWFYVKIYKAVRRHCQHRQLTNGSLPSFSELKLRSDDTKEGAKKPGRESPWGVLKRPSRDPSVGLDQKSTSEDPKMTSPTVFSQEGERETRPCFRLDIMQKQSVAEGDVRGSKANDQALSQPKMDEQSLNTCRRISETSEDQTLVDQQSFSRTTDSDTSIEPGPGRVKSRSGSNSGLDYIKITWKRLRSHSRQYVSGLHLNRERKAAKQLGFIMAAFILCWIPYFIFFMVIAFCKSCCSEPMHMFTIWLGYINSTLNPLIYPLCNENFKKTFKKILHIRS

| Compound | inhibition [1] | inhibition [2] | IC50 [3] [µM] | IC50 [4] [µM] |
| --- | --- | --- | --- | --- |
| NC(=O)OCC(COC(N)=O)c1ccccc1 | inactive | – | – | – |
| OC(CCN1CCCCC1)(c1ccccc1)C1CC2C=CC1C2 (centres undefined) | Active | Active | – | – |
| CCN(CC)CCOC(=O)C(c1ccccc1)c1ccccc1 [ADIPHENINE] | – | – | 17 | 112 |
| CN(C)CC/C=C1/c2ccccc2Sc2ccc(Cl)cc21 [CHLORPROTHIXENE] | – | – | 0.00107 | – |
| CN1[C@@H](CC(=O)c2ccccc2)CCC[C@H]1C[C@H](O)c1ccccc1 [LOBELINE] | – | – | 11.2 | 44.7 |
| OC(CCN1CCCC1)(c1ccccc1)C1CCCCC1 (centres undefined) [PROCYCLIDINE] | – | – | 6.76 | – |

Reference: ChEMBL document CHEMBL2163313, “Shape-based reprofiling of FDA-approved drugs for the H₁ histamine receptor” (J Med Chem, 2012)
